Measured values reported in patent US11116726B2, “Echinomycin formulation, method of making and method of use thereof” (CHILDREN'S RESEARCH INSTITUTE, CHILDREN'S NATIONAL MEDICAL …, priority 2015, dated 2021).

Columns and labels:
[1] = test system: SUM159 breast cancer cells; assay: SUM159 breast cancer xenograft efficacy; format: in vivo, NSG mice; conditions: 0.1 mg/kg i.v. once every 3 days, 6 doses
Description: FIG. 11. Therapeutic effect of liposomal echinomycin on breast cancer in vivo. (Panel A) Female NSG mice were xenografted with human SUM159 breast cancer cells and treated with free echinomycin or vehicle (n=10 per group). Mice received 0.1 mg/kg of free echinomycin or vehicle via i.v. injection once every 3 days starting on day 28 for a total of 6 doses. Growth kinetics of SUM159 are shown. (Panel B) Female NSG mice were xenografted with SUM159 breast cancer cells and treated with liposomal echinomycin or vehicle (n=5 per group). The growth kinetics of SUM159 in recipient mice treated with vehicle and liposomal echinomycin are shown. Mice received 0.35 mg/kg of liposomal echinomycin or vehicle by i.v. injection on days 9, 11, 13, 25 and 27. Average tumor volume was recorded throughout the experiment. Error bars represent ±SEM. Individual treatments and dosage are denoted by asterisks. (Panel C) Mice were euthanized, and tumors were dissected and photographed. […] Weight is expressed as average weight ±s.d., P value was calculated by t test.
To test the therapeutic efficacy of free echinomycin (in PBS), Lipo-EM, and vehicle in breast cancer cells in vivo, SUM159 cells were xenografted in the mammary fat pad of NOD-SCID mice. […] In addition, Growth kinetics of the transplanted tumors were measured by volume (FIG. 11, panel B) and by weight (FIG. 11, panel C and panel D). […]

[2] = Plasma pharmacokinetics by mass spectrometry after single i.v. injection; format: in vivo, mice; conditions: 0.1 mg/kg single i.v.
Description: FIG. 5. Comparison of pharmacokinetics for liposomal vs. free echinomycin. Serum plasma levels of echinomycin detected by MS following single dose i.v. administration of 0.1 mg/kg liposomal echinomycin or free echinomycin
PEG shields liposomes from rapid uptake by the RES and provides steric stabilization to the liposome particles. To measure the prolonged circulation of liposomal echinomycin in the bloodstream compared to free echinomycin, the pharmacokinetics of both formulations were evaluated by detecting echinomycin levels in the plasma by mass spectrometry following single i.v. injections of 0.1 mg/kg of liposomal echinomycin or free echinomycin in mice (FIG. 5).

[3] = Liposomal echinomycin toxicity in mice (body weight, survival); format: in vivo, NSG mice; conditions: 1 mg/kg single i.v.
Description: FIG. 4. Comparison of toxicity and efficacy for liposomal vs. free echinomycin. (Panel A) Body weight change in female NSG mice receiving a therapeutic cycle of liposomal echinomycin, PBS echinomycin (20% DMSO in PBS), or equivalent dosage of empty liposomal vehicle. Mice were treated with 250 μg/kg of liposomal (n=7) or free (n=7) echinomycin, or vehicle equivalent (n=4), by i.v. once every other day for a total of 3 doses). (Panel B) Survival of NSG mice administered single i.v. injection of 1 mg/kg liposomal or free echinomycin, or equivalent dosage of empty liposomal vehicle.
To test the toxicity of liposomal echinomycin in mice, a therapeutic cycle of echinomycin was administered at a dose of 250 μg/kg, (liposomal-formulated, non-liposomal-formulated, or equivalent dosage of empty liposomal vehicle) by i.v. injection, every other day for a total of 3 doses. Body weights of the mice were monitored throughout this period.

[4] = cited from earlier work
[5] = Echinomycin concentration in SUM 159 breast tumor tissue after single i.v. injection; format: in vivo, NSG mice; conditions: 0.1 mg/kg single i.v., SUM 159 tumor
Description: FIG. 6. Accumulation of Echinomycin in tumor. Concentration of echinomycin in breast tumor SUM 159 following single dose i.v. injection (0.1 mg/kg) of liposomal and conventionally formulated echinomycin. n=3/time-point.
In contrast, administration of liposomal echinomycin (Lipo-EM) at the same dose of 0.1 mg/kg achieved a tissue concentration >5 ng/g, which was prolonged for more than 10 hrs following administration (FIG. 6). More importantly, peak drug levels in the liposomal echinomycin-treated group were approximately 6-fold higher than those treated with free echinomycin.

MCF7 cells = assay: MTT cell viability assay, MCF7; format: cell-based, human; conditions: 48 hrs, compared with SUM159
Description: (§1) FIG. 9. Echinomycin reduced the number of live breast cancer cells in vitro. Breast cancer cells with high (SUM 159) or low (MCF7) levels of HIF-1α were treated with various concentrations of echinomycin in vitro. The correlation between echinomycin concentration and relative proportions of surviving cells after co-culturing with echinomycin is shown. SUM 159 cells with high HIF-1α are more sensitive to echinomycin than MCF7, which express less HIF-1α.
(§2) To better understand the importance of high HIF-1α expression in breast cancer cells, the ability of echinomycin to reduce survival of breast cancer cells was tested in two breast cancer cell lines, MCF7 and SUM 159. More specifically, MCF7 and SUM 159 were treated with different concentrations of echinomycin for 48 hrs, followed by MTT assays to measure cell viability thereafter.

human ETP-ALL-1 cells = assay: ETP-ALL xenograft model, human CD45+ cells in blood by FACS; format: in vivo, NSG mice; conditions: echinomycin in PBS 0.1 mg/kg x15 doses; Lipo-EM 0.35 mg/kg x10 doses; blood days 34, 50, 65
Description: FIG. 8. Liposomal echinomycin eliminates human ETP-ALL cells in a xenograft mouse model. (Panel A) Dosing regimen of liposomal echinomycin treatment for ETP-ALL humanized mice for data in panel B. Day 0 indicates day of transplantation with human ETP-ALL-1 cells. Green arrows represent one individual liposomal echinomycin injection (0.35 mg/kg/injection via i.v.). Red arrows indicate blood tests. (Panel B) NSG mice with 1.3 Gys irradiated were given i.v. injection of 1×10^6 human ETP-ALL-1 cells. Human CD45^+ cells in PBMC of recipients were detected by FACS analysis at day 34 after transplantation. The percentage of human CD45^+ in PBMC of recipient mice before treatment (Day 34) and after treatment (Day 42, 48, 56, and 64) of mice (vehicle and liposomal echinomycin treatment) was analyzed by FACS analysis. […] The percentage of human CD45^+ in PBMC of recipients after echinomycin treatment (Day 34, 50, and 65) of mice was analyzed by FACS analysis.
To test whether administration of liposomal echinomycin (Lipo-EM) could eliminate human ETP-ALL cells in vivo, Lipo-EM was administered to xenografted ETP-ALL NSG mice according to the dosing schedule outlined in FIG. 8, panel A. Briefly, 1×10^6 ETP ALL-1 cells were transplanted via i.v. injection into 1.3 Gys irradiated NSG mice. […] The percentage of human ETP ALL-1 cells was monitored after treatment. […]

[6] = Intravenous tolerability / LD50 in mice; conditions: mouse, in vivo
SUM159 cells = assay: MTT cell viability assay, SUM 159; format: cell-based; conditions: Homo sapiens, 48 hrs, read-out: IC50 (number of live cells)
Description: as §1, §2

CS[C@H]1SC[C@H]2C(=O)N(C)[C@@H](C(C)C)C(=O)OC[C@@H](NC(=O)c3cnc4ccccc4n3)C(=O)N[C@@H](C)C(=O)N(C)[C@@H]1C(=O)N(C)[C@@H](C(C)C)C(=O)OC[C@@H](NC(=O)c1cnc3ccccc3n1)C(=O)N[C@@H](C)C(=O)N2C [free echinomycin, Echinomycin]
tumor size vs vehicle control [1]: no significant differences in tumor size | time point at which plasma concentration >1 ng/ml is achieved (only) [2]: 15 min | survival (in words) [3]: died within a week | solubility in ethanol, alkalis, ketones, acetic acid and chloroform [4]: soluble | solubility in water ([4]; water): insoluble | time point at which tumor concentration >5 ng/g is achieved (only) [5]: 2 h | sensitivity to echinomycin (MCF7 cells): less sensitive | growth of ETP-ALL-1 cells in recipients (comparison study) (human ETP-ALL-1 cells): did inhibit the growth rate of ETP-ALL-1 cells | LD50 [6]: 0.629 mg/kg | IC50 (SUM159 cells): 1 nM
